Several values for one entry are separate records, joined by “and”; a condition that tells them apart may be missing. Identical values can stand only once. Toxic doses and inconclusive results are not listed.
Test system: L1210 leukemia ip in BDF1 mice, survival T/C
Assay: NCI In Vivo Anticancer Drug Screen. Data for tumor model L1210 Leukemia (intraperitoneal) in B6D2F1 (BDF1) mice
Conditions: endpoint: mean survival time, higher = longer survival
In short: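 Value reflects the ratio of survival in compound-treated mice to survival in vehicle-treated controls, with both groups carrying the same transplanted tumor.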

[1] = dose: 100.0 mg/kg/injection, schedule: Q01DX009 (ip), vehicle: Klucel (hydroxypropylcellulose) (HPC)
[2] = dose: 100.0 mg/kg/injection, schedule: Q04DX003 (ip), vehicle: Klucel (hydroxypropylcellulose) (HPC)
[3] = dose: 200.0 mg/kg/injection, schedule: Q01DX009 (ip), vehicle: Klucel (hydroxypropylcellulose) (HPC)
[4] = dose: 200.0 mg/kg/injection, schedule: Q04DX003 (ip), vehicle: Klucel (hydroxypropylcellulose) (HPC)
[5] = dose: 400.0 mg/kg/injection, schedule: Q01DX009 (ip), vehicle: Klucel (hydroxypropylcellulose) (HPC)
[6] = dose: 100.0 mg/kg/injection, schedule: Q04DX003 (ip), vehicle: saline
[7] = dose: 400.0 mg/kg/injection, schedule: Q04DX003 (ip), vehicle: Klucel (hydroxypropylcellulose) (HPC)
[8] = dose: 100.0 mg/kg/injection, schedule: Q01DX009 (ip), vehicle: saline with Tween-80
[9] = dose: 200.0 mg/kg/injection, schedule: Q01DX009 (ip), vehicle: saline with Tween-80
[10] = dose: 100.0 mg/kg/injection, schedule: Q04DX003 (ip), vehicle: saline with Tween-80
[11] = dose: 200.0 mg/kg/injection, schedule: Q04DX003 (ip), vehicle: saline with Tween-80
[12] = dose: 400.0 mg/kg/injection, schedule: Q04DX003 (ip), vehicle: saline with Tween-80
[13] = dose: 400.0 mg/kg/injection, schedule: Q01DX009 (ip), vehicle: saline with Tween-80

CC1(C#N)CC(c2ccccc2)Nc2ccccc2N1 (stereo not given)
T/C [1]: 92 % of control | T/C [2]: 98 % of control | T/C [3]: 100 % of control | T/C [4]: 96 % of control | T/C (dose: 264.0 mg/kg/injection, schedule: Q04DX003 (ip), vehicle: Klucel (hydroxypropylcellulose) (HPC)): 96 % of control and 97 % of control | T/C [5]: 97 % of control

O=C[C@@H](CO)O[C@H](C=O)c1c[nH]c(=O)[nH]c1=O
T/C (dose: 66.0 mg/kg/injection, schedule: Q03DX003 (ip), vehicle: saline): 213 % of control | T/C (dose: 80.0 mg/kg/injection, schedule: Q04DX003 (ip), vehicle: saline): 168 % of control | T/C [6]: 209 % of control | T/C (dose: 120.0 mg/kg/injection, schedule: Q04DX003 (ip), vehicle: saline): 252 % of control | T/C (dose: 140.0 mg/kg/injection, schedule: Q04DX003 (ip), vehicle: saline): 204 % of control | T/C (dose: 150.0 mg/kg/injection, schedule: Q03DX003 (ip), vehicle: saline): 217 % of control

CN1CCC(OC(=O)C2CC(=O)NC(=O)C2)CC1
T/C [2]: 107 % of control | T/C [4]: 102 % of control | T/C [7]: 94 % of control

CCCCNC(=O)/C=C\C(=O)O
T/C (dose: 50.0 mg/kg/injection, schedule: Q01DX009 (ip), vehicle: saline with Tween-80): 95 % of control | T/C [1]: 87 % of control | T/C [8]: 97 % of control | T/C (dose: 100.0 mg/kg/injection, schedule: Q01DX009 (ip), vehicle: saline): 92 % of control | T/C [2]: 100 % of control | T/C [3]: 87 % of control | T/C [9]: 95 % of control | T/C (dose: 200.0 mg/kg/injection, schedule: Q01DX009 (ip), vehicle: saline): 94 % of control | T/C [5]: 100 % of control | T/C (dose: 400.0 mg/kg/injection, schedule: Q01DX009 (ip), vehicle: saline): 97 % of control | T/C [7]: 87 % of control

CN(CC(=O)O)C(=O)CN=Cc1ccccc1
T/C [6]: 96 % of control | T/C (dose: 200.0 mg/kg/injection, schedule: Q04DX003 (ip), vehicle: saline): 97 % of control | T/C (dose: 400.0 mg/kg/injection, schedule: Q04DX003 (ip), vehicle: saline): 97 % of control

COC(=O)c1cc(Cl)c(C(=O)OC)cc1Cl
T/C [2]: 90 % of control | T/C [4]: 98 % of control | T/C [7]: 102 % of control

CCC1(O)CCCC1
T/C (dose: 50.0 mg/kg/injection, schedule: Q01DX001 (ip), vehicle: carboxymethylcellulose (CMC)): 95 % of control | T/C (dose: 100.0 mg/kg/injection, schedule: Q01DX001 (ip), vehicle: carboxymethylcellulose (CMC)): 92 % of control | T/C (dose: 200.0 mg/kg/injection, schedule: Q01DX001 (ip), vehicle: carboxymethylcellulose (CMC)): 92 % of control | T/C (dose: 400.0 mg/kg/injection, schedule: Q01DX001 (ip), vehicle: carboxymethylcellulose (CMC)): 97 % of control

N#CCCn1cnc2c(=S)nc[nH]c21
T/C (dose: 2.0 mg/kg/injection, schedule: Q01DX Z (ip), vehicle: other): 97 % of control | T/C (dose: 4.0 mg/kg/injection, schedule: Q01DX Z (ip), vehicle: other): 97 % of control and 100 % of control | T/C (dose: 8.0 mg/kg/injection, schedule: Q01DX Z (ip), vehicle: other): 100 % of control and 106 % of control | T/C (dose: 16.0 mg/kg/injection, schedule: Q01DX Z (ip), vehicle: other): 101 % of control and 102 % of control | T/C (dose: 32.0 mg/kg/injection, schedule: Q01DX Z (ip), vehicle: other): 96 % of control and 98 % of control

Cc1cc2ncn(C(=O)Nc3ccccc3)c2cc1C
T/C [10]: 92 % of control | T/C [11]: 87 % of control | T/C [12]: 90 % of control

CC(C)NP(=O)(NC(C)C)OC1CC(C)(C)N(O)C(C)(C)C1
T/C (dose: 6.25 mg/kg/injection, schedule: Q01DX001 (ip), vehicle: water): 92 % of control | T/C (dose: 12.5 mg/kg/injection, schedule: Q01DX001 (ip), vehicle: water): 96 % of control | T/C (dose: 25.0 mg/kg/injection, schedule: Q01DX001 (ip), vehicle: water): 99 % of control | T/C (dose: 50.0 mg/kg/injection, schedule: Q01DX001 (ip), vehicle: water): 94 % of control

CSc1cccc(N2C(=O)C=CC2=O)c1
T/C (dose: 2.5 mg/kg/injection, schedule: Q04DX002 (ip), vehicle: Klucel (hydroxypropylcellulose) (HPC)): 92 % of control | T/C (dose: 5.0 mg/kg/injection, schedule: Q04DX002 (ip), vehicle: Klucel (hydroxypropylcellulose) (HPC)): 88 % of control | T/C (dose: 10.0 mg/kg/injection, schedule: Q04DX002 (ip), vehicle: Klucel (hydroxypropylcellulose) (HPC)): 95 % of control and 97 % of control

O=C1OC(=O)C2CC(Cl)C(Cl)CC12 (stereo not given)
T/C [8]: 89 % of control | T/C [10]: 89 % of control | T/C [9]: 86 % of control | T/C [11]: 100 % of control | T/C [13]: 89 % of control | T/C [12]: 104 % of control

C=C(C)COc1c(CCC)cc(C)cc1NC(C)=O
T/C [10]: 106 % of control | T/C [11]: 97 % of control | T/C [12]: 104 % of control

CC(C)(C)C(=O)OCn1cnc(=N)c2[nH]cnc21
T/C [2]: 100 % of control | T/C [4]: 108 % of control

CC(C)(C)N(Cc1ccccc1)C(=O)Nc1ccccc1
T/C [1]: 97 % of control | T/C [3]: 110 % of control | T/C [5]: 103 % of control

CSc1ncnc2c1ncn2N(CCCl)C(C)=O
T/C (dose: 25.0 mg/kg/injection, schedule: Q01DX001 (ip), vehicle: other): 96 % of control | T/C (dose: 25.0 mg/kg/injection, schedule: Q01DX009 (ip), vehicle: other): 101 % of control | T/C (dose: 25.0 mg/kg/injection, schedule: Q04DX003 (ip), vehicle: other): 100 % of control | T/C (dose: 50.0 mg/kg/injection, schedule: Q01DX001 (ip), vehicle: other): 98 % of control | T/C (dose: 50.0 mg/kg/injection, schedule: Q01DX009 (ip), vehicle: other): 105 % of control | T/C (dose: 50.0 mg/kg/injection, schedule: Q04DX003 (ip), vehicle: other): 103 % of control | T/C (dose: 100.0 mg/kg/injection, schedule: Q01DX001 (ip), vehicle: other): 96 % of control and 105 % of control | T/C (dose: 100.0 mg/kg/injection, schedule: Q01DX009 (ip), vehicle: other): 97 % of control | T/C (dose: 100.0 mg/kg/injection, schedule: Q04DX003 (ip), vehicle: other): 102 % of control

COc1ccc2ncc(C)c(C=O)c2c1
T/C [1]: 95 % of control | T/C [3]: 96 % of control | T/C [5]: 110 % of control

CCOC(=O)c1nc2c(C)nc(N)nc2[nH]c1=O
T/C (dose: 100.0 mg/kg/injection, schedule: Q01DX001 (ip), vehicle: Klucel (hydroxypropylcellulose) (HPC)): 107 % of control | T/C (dose: 200.0 mg/kg/injection, schedule: Q01DX001 (ip), vehicle: Klucel (hydroxypropylcellulose) (HPC)): 111 % of control | T/C (dose: 400.0 mg/kg/injection, schedule: Q01DX001 (ip), vehicle: Klucel (hydroxypropylcellulose) (HPC)): 96 % of control

O=C1CN(O)C(c2ccccc2)=c2cc(Cl)ccc2=N1
T/C (dose: 25.0 mg/kg/injection, schedule: Q01DX009 (ip), vehicle: Klucel (hydroxypropylcellulose) (HPC)): 100 % of control | T/C (dose: 25.0 mg/kg/injection, schedule: Q04DX003 (ip), vehicle: Klucel (hydroxypropylcellulose) (HPC)): 98 % of control | T/C (dose: 50.0 mg/kg/injection, schedule: Q01DX009 (ip), vehicle: Klucel (hydroxypropylcellulose) (HPC)): 101 % of control | T/C (dose: 50.0 mg/kg/injection, schedule: Q04DX003 (ip), vehicle: Klucel (hydroxypropylcellulose) (HPC)): 108 % of control | T/C [1]: 95 % of control | T/C [2]: 90 % of control | T/C [3]: 92 % of control | T/C [4]: 93 % of control | T/C [5]: 108 % of control | T/C [7]: 98 % of control

O=C(Cl)c1cccc2c1sc1ccccc12
T/C [8]: 102 % of control | T/C [10]: 97 % of control | T/C [9]: 102 % of control | T/C [11]: 98 % of control | T/C [13]: 100 % of control | T/C [12]: 98 % of control

O=C1CSC(c2ccccc2)N1 (stereo not given)
T/C (dose: 44.0 mg/kg/injection, schedule: Q04DX003 (ip), vehicle: Klucel (hydroxypropylcellulose) (HPC)): 94 % of control and 103 % of control | T/C (dose: 67.0 mg/kg/injection, schedule: Q04DX003 (ip), vehicle: Klucel (hydroxypropylcellulose) (HPC)): 98 % of control and 100 % of control | T/C [1]: 98 % of control | T/C [2]: 98 % of control and 100 % of control | T/C (dose: 150.0 mg/kg/injection, schedule: Q04DX003 (ip), vehicle: Klucel (hydroxypropylcellulose) (HPC)): 98 % of control and 109 % of control | T/C [3]: 98 % of control | T/C [4]: 100 % of control | T/C [5]: 95 % of control | T/C [7]: 105 % of control
